SMILES strings stand for the structures.

The first experiment deals with FASN enzyme (Homo sapiens, UniProt P49327). The experiment can be described thus: Enzymatic Assay for FASN Inhibitors. It counts as biochemical.
Chain of FASN enzyme (P49327 whole entry): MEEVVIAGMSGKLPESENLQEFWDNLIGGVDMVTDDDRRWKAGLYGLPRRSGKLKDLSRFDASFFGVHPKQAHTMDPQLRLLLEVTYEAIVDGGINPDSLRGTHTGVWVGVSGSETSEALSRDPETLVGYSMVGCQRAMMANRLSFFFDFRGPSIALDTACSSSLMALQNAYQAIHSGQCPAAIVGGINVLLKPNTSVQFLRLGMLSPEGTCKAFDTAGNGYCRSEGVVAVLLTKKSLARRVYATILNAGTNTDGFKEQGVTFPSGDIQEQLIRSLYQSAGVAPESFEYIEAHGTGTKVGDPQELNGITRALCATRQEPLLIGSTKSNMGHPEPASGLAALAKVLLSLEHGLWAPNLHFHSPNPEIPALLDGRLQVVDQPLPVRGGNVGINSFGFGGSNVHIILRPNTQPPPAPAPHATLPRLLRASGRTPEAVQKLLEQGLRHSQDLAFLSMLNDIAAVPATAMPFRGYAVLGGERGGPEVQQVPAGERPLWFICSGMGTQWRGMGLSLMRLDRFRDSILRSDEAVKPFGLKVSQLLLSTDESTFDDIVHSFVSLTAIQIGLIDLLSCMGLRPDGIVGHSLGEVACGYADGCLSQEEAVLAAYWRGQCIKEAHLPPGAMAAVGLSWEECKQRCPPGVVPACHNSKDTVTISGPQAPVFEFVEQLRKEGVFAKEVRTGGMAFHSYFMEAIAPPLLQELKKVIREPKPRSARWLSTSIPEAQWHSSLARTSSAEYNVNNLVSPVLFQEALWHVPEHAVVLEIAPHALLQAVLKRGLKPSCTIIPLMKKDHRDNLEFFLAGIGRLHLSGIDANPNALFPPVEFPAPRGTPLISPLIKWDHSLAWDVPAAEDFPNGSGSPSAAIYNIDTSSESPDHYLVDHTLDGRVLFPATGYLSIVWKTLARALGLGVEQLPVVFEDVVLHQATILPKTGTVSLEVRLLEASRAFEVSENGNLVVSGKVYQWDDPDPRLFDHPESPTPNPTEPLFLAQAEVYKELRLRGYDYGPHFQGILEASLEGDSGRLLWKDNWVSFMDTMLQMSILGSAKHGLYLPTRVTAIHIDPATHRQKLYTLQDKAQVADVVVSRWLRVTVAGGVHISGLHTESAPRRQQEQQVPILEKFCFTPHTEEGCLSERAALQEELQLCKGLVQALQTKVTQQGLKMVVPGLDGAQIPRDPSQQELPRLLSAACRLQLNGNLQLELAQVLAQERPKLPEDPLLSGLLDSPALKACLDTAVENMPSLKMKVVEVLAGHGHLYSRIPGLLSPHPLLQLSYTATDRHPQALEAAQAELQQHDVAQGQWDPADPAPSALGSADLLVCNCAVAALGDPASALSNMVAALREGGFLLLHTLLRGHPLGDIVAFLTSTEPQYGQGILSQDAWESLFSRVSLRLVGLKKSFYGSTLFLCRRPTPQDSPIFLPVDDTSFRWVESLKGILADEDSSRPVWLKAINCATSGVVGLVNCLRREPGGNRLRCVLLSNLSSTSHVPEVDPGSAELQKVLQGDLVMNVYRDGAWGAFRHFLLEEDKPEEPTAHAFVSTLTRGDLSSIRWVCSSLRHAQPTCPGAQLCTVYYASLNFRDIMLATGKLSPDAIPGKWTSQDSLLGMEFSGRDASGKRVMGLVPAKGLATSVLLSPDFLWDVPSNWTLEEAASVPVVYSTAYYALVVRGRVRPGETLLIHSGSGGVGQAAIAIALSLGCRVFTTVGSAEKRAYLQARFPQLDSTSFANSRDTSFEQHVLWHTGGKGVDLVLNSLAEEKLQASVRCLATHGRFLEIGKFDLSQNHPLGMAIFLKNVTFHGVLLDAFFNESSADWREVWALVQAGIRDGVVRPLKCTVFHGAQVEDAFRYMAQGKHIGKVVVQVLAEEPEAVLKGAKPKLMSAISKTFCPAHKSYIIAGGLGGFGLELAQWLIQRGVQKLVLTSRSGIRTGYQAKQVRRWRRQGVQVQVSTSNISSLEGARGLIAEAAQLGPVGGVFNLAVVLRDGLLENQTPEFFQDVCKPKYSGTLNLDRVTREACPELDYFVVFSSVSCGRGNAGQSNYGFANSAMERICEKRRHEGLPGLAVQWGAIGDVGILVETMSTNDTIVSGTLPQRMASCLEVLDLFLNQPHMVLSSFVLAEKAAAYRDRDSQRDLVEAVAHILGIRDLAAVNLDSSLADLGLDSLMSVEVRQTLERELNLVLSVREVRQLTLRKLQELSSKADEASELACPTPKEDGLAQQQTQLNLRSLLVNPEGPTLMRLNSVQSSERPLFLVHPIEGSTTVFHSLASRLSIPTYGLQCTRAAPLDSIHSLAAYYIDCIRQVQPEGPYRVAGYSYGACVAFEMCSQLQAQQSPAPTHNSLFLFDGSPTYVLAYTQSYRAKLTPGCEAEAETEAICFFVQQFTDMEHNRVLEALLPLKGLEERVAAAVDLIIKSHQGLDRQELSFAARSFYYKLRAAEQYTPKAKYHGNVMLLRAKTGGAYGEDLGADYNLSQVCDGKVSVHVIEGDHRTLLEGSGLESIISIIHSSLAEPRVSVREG
Conditions: not given
In short, it runs like this: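 40 nM FASN preincubated with compound 60 min at 25° C in HEPES pH 7.3 buffer with 0.04% Triton X-100. Then 20 μM acetyl-CoA, 60 μM malonyl-CoA and 100 μM NADPH added for 90 min, quenched with CPM thiol probe; fluorescence 360/530 nm, IC50 by four-parameter fit.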
In the case of `Cc1nc2ccccc2n1-c1ccc(C(=O)N2CCN(C(=O)C3(O)CC3)CC2)cc1` [1-{4-[4-(2-methyl-1H-1,3-benzodiazol-1-yl)benzoyl]piperazine-1-carbonyl}cyclopropan-1-ol], the IC50 (commonly the concentration that gives 50% inhibition) is under 500 nM. In turn, `Cn1cnc2cc(-c3ccc(C(=O)N4CCN(C(=O)C5(O)CC5)CC45CC5)cc3)ccc21` [1-{4-[4-(1-methyl-1H-1,3-benzodiazol-5-yl)benzoyl]-4,7-diazaspiro[2.5]octane-7-carbonyl}cyclopropan-1-ol] came in with an IC50 of under 500 nM. For `C[C@H]1CN(C(=O)c2ccc(-c3cccc(S(=O)(=O)C4CC4)c3)cc2)CCN1C(=O)C1(O)CC1` [1-[(2S)-4-{4-[3-(cyclopropanesulfonyl)phenyl]benzoyl}-2-methylpiperazine-1-carbonyl]cyclopropan-1-ol], the concentration for half-maximal inhibition (IC50) was under 500 nM. In turn, `O=C(c1ccc(-c2cccc(S(=O)(=O)C3CC3)c2)c(Cl)c1)N1CCN(C(=O)C2(O)CC2)CC1` gave an IC50 of under 500 nM. `Cc1nn(C)c2ccc(-c3ccc(C(=O)N4CCN(C(=O)C5CCO5)CC4)cc3)cc12` (stereo not drawn): the IC50 is under 500 nM. `CC1Cc2ccccc2N1c1ccc(C(=O)N2CCN(C(=O)C3(O)CC3)CC2)cc1` (stereo not drawn) [1-{4-[4-(2-methyl-2,3-dihydro-1H-indol-1-yl)benzoyl]piperazine-1-carbonyl}cyclopropan-1-ol] yielded an IC50 of under 500 nM.

Regarding `Cc1nc2cc(-c3ccc(C(=O)N4CCN(C(=O)C5(O)CC5)CC4)cc3)ccc2[nH]1` [1-{4-[4-(2-methyl-1H-1,3-benzodiazol-5-yl)benzoyl]piperazine-1-carbonyl}cyclopropan-1-ol], the IC50 is under 500 nM. Same read-out and setting: in the case of `CS(=O)(=O)n1ccc2ccc(-c3ccc(C(=O)N4CCN(C(=O)C5(O)CC5)CC4)cc3)cc21` [1-{4-[4-(1-methanesulfonyl-1H-indol-6-yl)benzoyl]piperazine-1-carbonyl}cyclopropan-1-ol] it was under 500 nM. `O=C(c1ccc(-c2ccc(Cl)c(F)c2)cc1)N1CCN(C(=O)C2(O)CC2)CC1` [1-[(4-{[4-(4-chloro-3-fluorophenyl)phenyl]carbonyl}piperazin-1-yl)carbonyl]cyclopropan-1-ol]: the IC50 is under 500 nM. As to `Cn1cc2ccc(-c3cc(F)c(C(=O)N4CCN(C(=O)C5(N)CC5)CC4)c(F)c3)cc2n1` [1-{4-[2,6-difluoro-4-(2-methyl-2H-indazol-6-yl)benzoyl]piperazine-1-carbonyl}cyclopropan-1-amine], the IC50 was under 500 nM. For `O=C(c1ccc(N2Cc3ccc(F)cc3C2)cc1)N1CCN(C(=O)C2(O)CC2)CC1` [1-{4-[4-(5-fluoro-2,3-dihydro-1H-isoindol-2-yl)benzoyl]piperazine-1-carbonyl}cyclopropan-1-ol], the IC50 is under 500 nM. `CC1(C)CN(C(=O)C2(O)CC2)CCN1C(=O)c1ccc(-c2nc3ccc(F)cc3o2)cc1` had an IC50 of under 500 nM. For the molecule `C[C@@H]1CN(C(=O)c2ccc(-c3ccc(Cl)cc3F)cc2)C[C@H](C)N1C(=O)C1(O)CC1` [1-[(2S,6R)-4-[4-(4-chloro-2-fluorophenyl)benzoyl]-2,6-dimethylpiperazine-1-carbonyl]cyclopropan-1-ol], the IC50 was under 500 nM. Same read-out and setting: to `N#CC1(c2cccc(-c3ccc(C(=O)N4CCN(C(=O)C5(O)CC5)CC4)c(F)c3)c2)CC1` [1-(3-{3-fluoro-4-[4-(1-hydroxycyclopropanecarbonyl)piperazine-1-carbonyl]phenyl}phenyl)cyclopropane-1-carbonitrile] belongs under 500 nM; to `Nc1nc(-c2cccc(-c3ccc(C(=O)N4CCN(C(=O)C5(O)CC5)CC4)cc3)c2)cs1` [1-(4-{4-[3-(2-amino-1,3-thiazol-4-yl)phenyl]benzoyl}piperazine-1-carbonyl)cyclopropan-1-ol], under 500 nM. `Cc1nnc(-c2cccc(-c3ccc(C(=O)N4CCN(C(=O)C5(O)CC5)CC4)cc3)c2)s1` [1-(4-{4-[3-(5-methyl-1,3,4-thiadiazol-2-yl)phenyl]benzoyl}piperazine-1-carbonyl)cyclopropan-1-ol] gave an IC50 of under 500 nM.

`Cc1n[nH]c2c(-c3ccc(C(=O)N4CCN(C(=O)C5(N)CC5)CC4)cc3)cccc12`: the IC50 is under 500 nM.

Regarding `Nc1noc2ccc(-c3ccc(C(=O)N4CCN(C(=O)C5(O)CC5)CC4)cc3)cc12` [1-{4-[4-(3-amino-1,2-benzoxazol-5-yl)benzoyl]piperazine-1-carbonyl}cyclopropan-1-ol], the IC50 was under 500 nM. On the same count and under the same terms, in the case of `O=C(c1ccc(N2CCCc3ccccc3C2)cc1)N1CCN(C(=O)C2(O)CC2)CC1` [1-{4-[4-(2,3,4,5-tetrahydro-1H-2-benzazepin-2-yl)benzoyl]piperazine-1-carbonyl}cyclopropan-1-ol] it was under 500 nM. `O=C(c1ccc(-c2ccc(Cl)cc2)cc1)N1CCN(C(=O)C2(O)CC2)CC1` showed a 50% inhibitory concentration (IC50) of under 500 nM. In turn, `Nc1noc2cc(-c3ccc(C(=O)N4CCN(C(=O)C5(O)CC5)CC4)cc3)ccc12` [1-{4-[4-(3-amino-1,2-benzoxazol-6-yl)benzoyl]piperazine-1-carbonyl}cyclopropan-1-ol] came in with an IC50 of under 500 nM. The same measure, in the same setting: to `Cc1cc2ccccc2n1-c1ccc(C(=O)N2CCN(C(=O)C3(O)CC3)CC2)c(F)c1` [1-{4-[2-fluoro-4-(2-methyl-1H-indol-1-yl)benzoyl]piperazine-1-carbonyl}cyclopropan-1-ol] belongs under 500 nM.

Still in this experiment, the particulars now being: FASN enzymatic assay; Table 2-2.
As for `O=C(c1ccc(-c2ccc(Cl)cc2F)cn1)N1CCN(C(=O)C2(O)CC2)CC1` [1-[(4-{[5-(4-chloro-2-fluorophenyl)pyridin-2-yl]carbonyl}piperazin-1-yl)carbonyl]cyclopropan-1-ol], the IC50 was 500 to 5000 nM. `O=C(c1ccc(-c2nc3c(Cl)cccc3[nH]2)cc1)N1CCN(C(=O)C2(O)CC2)CC1` [1-[(4-{[4-(4-chloro-1H-1,3-benzodiazol-2-yl)phenyl]carbonyl}piperazin-1-yl)carbonyl]cyclopropan-1-ol] registered an IC50 of 500 to 5000 nM. Molecule `O=C(c1ccc(-c2ccc(F)cc2C(F)(F)F)cc1)N1CCN(C(=O)C2(O)CC2)CC1` [1-{[4-({4-[4-fluoro-2-(trifluoromethyl)phenyl]phenyl}carbonyl)piperazin-1-yl]carbonyl}cyclopropan-1-ol] displayed an IC50 of 500 to 5000 nM. Take `Cc1cccc(-c2ccc(C(=O)N3CCN(C(=O)C4(O)CC4)CC3)cc2)c1F` [1-[(4-{[4-(2-fluoro-3-methylphenyl)phenyl]carbonyl}piperazin-1-yl)carbonyl]cyclopropan-1-ol]: the IC50 was 500 to 5000 nM.

Staying with this experiment, now noted: FASN enzymatic assay; Table 2-3.
With `O=C(c1cn2cc(-c3ccc(F)cc3)ccc2n1)N1CCN(C(=O)C2(O)CC2)CC1` [1-[(4-{[6-(4-fluorophenyl)imidazo[1,2-a]pyridin-2-yl]carbonyl}piperazin-1-yl)carbonyl]cyclopropan-1-ol], the IC50 is at least 5000 nM. In the case of `O=C(c1ccc(-c2cc(F)ccc2Cl)cc1)N1CCN(C(=O)C2(O)CC2)CC1` [1-[(4-{[4-(2-chloro-5-fluorophenyl)phenyl]carbonyl}piperazin-1-yl)carbonyl]cyclopropan-1-ol], the IC50 is at least 5000 nM. Same read-out and setting: in the case of `O=C(c1ccc(-c2cccc(F)c2F)cc1)N1CCN(C(=O)C2(O)CC2)CC1` [1-[(4-{[4-(2,3-difluorophenyl)phenyl]carbonyl}piperazin-1-yl)carbonyl]cyclopropan-1-ol] it was at least 5000 nM; in that of `O=C(c1ccc(Oc2ccccc2)cc1)N1CCN(C(=O)C2(O)CC2)CC1` [1-({4-[(4-phenoxyphenyl)carbonyl]piperazin-1-yl}carbonyl)cyclopropan-1-ol], at least 5000 nM.

The values are drawn from patent publication US10457655B2, “Compounds and compositions for inhibition of FASN” (FORMA Therapeutics, Inc., priority 2013, dated 2019).
